Experimental findings from ChEMBL document CHEMBL1201862, “PubChem BioAssay data set” (2004) are described below.

Holding throughout (assay): inhibition of tumour cell growth, NCI panel, 48 h
Assay [1] has as its system A498.
The subject of assay [2] is ACHN.
Assay [3] relates to DU-145.
Assay [4] relates to HCT-15.
Assay [5] concerns HOP-92.
The test system of assay [6] is KM12.
In assay [7] the test system is Malme-3M.
Assay [8] deals with NCI/ADR-RES.
Assay [9] deals with OVCAR-3.
Assay [10] has as its system PC-3.
For assay [11], the system named is RXF 393.
Assay [12] deals with SF-295.
The test system of assay [13] is SK-MEL-5.
Assay [14] relates to SN12C.
The test system of assay [15] is SR.
In assay [16] the test system is U-251.
Assay [17] has as its system UACC-62.
In assay [18] the test system is UO-31.
Assay [19] has as its system SW-620.
Assay [20] deals with HL-60.

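Interpolation was linear, between the two tested concentrations surrounding the appropriate level; five concentrations were tested over 48 hours in 96-well plates. Abbreviation: GI50, concentration required for 50% inhibition of growth.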 Active and inactive are the calls of the source. No stated cut-off is given here; in the data, active = GI50 up to about 1.1 µM and inactive = higher. Some results are limits rather than exact numbers.

Consider `NCCCN1CCN(c2ccccc2)CC1`, for which the GI50 in assay [1] is > 100 µM (inactive); in assay [2], > 100 µM (inactive); in [3], > 100 µM (inactive); in assay [4], more than 100 µM; in [5], 86.3 µM (inactive); in assay [6], > 100 µM (inactive). For the same compound, the GI50 in assay [7] is > 100 µM (inactive); in assay [8] it was > 100 µM (inactive); in [9], 10.7 µM (inactive); in assay [10], 33.4 µM (inactive); in assay [11], > 100 µM (inactive); in [12], 10.2 µM (inactive). The GI50 in assay [13] is > 100 µM (inactive); in assay [14], > 100 µM (inactive); in assay [15], 34.3 µM (inactive); in [16], > 100 µM (inactive); in assay [17], 70 µM (inactive); in assay [18], > 100 µM (inactive).

As to `c1ccc(C(CCN2CC3CCC(CC3)C2)c2ccccc2)cc1`, the GI50 in [1] was 15.6 µM (inactive); in assay [2], 22.8 µM (inactive); in assay [3] it was 38.4 µM (inactive); in assay [4], 21.8 µM; in assay [5], 22.9 µM (inactive); in [6], 23.9 µM (inactive). For the same compound, the GI50 in assay [7] is 16.3 µM (inactive); in [8], 23.8 µM (inactive); in assay [9], 20.2 µM (inactive); in assay [10], 31.5 µM (inactive); in assay [11] it was 18.8 µM (inactive); in assay [12], 26 µM (inactive). The GI50 in assay [13] was 16.5 µM (inactive); in assay [14], 26.4 µM (inactive); in assay [15], 19.7 µM (inactive); in assay [19], 29.9 µM (inactive); in [16], 18.2 µM (inactive); in assay [17], 17.1 µM (inactive). In assay [18], the GI50 is 14.9 µM (inactive).

Consider `CC1=CC(=O)N(n2c(Cc3ccccc3)n[nH]c2=O)C1=O`, for which the GI50 in [1] was > 100 µM (inactive); in assay [2], > 100 µM (inactive); in assay [3], > 100 µM (inactive); in assay [4], more than 100 µM; in assay [5] it was > 100 µM (inactive); in assay [6], > 100 µM (inactive). Besides, the GI50 is > 100 µM (inactive) in [7]; > 100 µM (inactive) in assay [8]; > 100 µM (inactive) in [9]; 93.5 µM (inactive) in [10]; > 100 µM (inactive) in [11]; > 100 µM (inactive) in [12]. Also, the GI50 in assay [13] was > 100 µM (inactive); in assay [14] it was > 100 µM (inactive); in [15], 72.6 µM (inactive); in assay [19] it was 83.9 µM (inactive); in assay [16], > 100 µM (inactive); in assay [17], > 100 µM (inactive). Also, the GI50 in [18] was > 100 µM (inactive).

On to `COc1ccc2c(c1)CC[C@@H]1[C@@H]2CC[C@]2(C)C(=O)/C(=C/c3ccc(C#N)cc3)C[C@@H]12`, for which the GI50 in [1] was > 100 µM (inactive); in [2], > 100 µM (inactive); in assay [3], > 100 µM (inactive); in [4] it was more than 100 µM; in assay [6] it was > 100 µM (inactive); in assay [7], > 100 µM (inactive). Besides, the GI50 in assay [8] is > 100 µM (inactive); in [10] it was > 100 µM (inactive); in assay [11], > 100 µM (inactive); in assay [12], 81.3 µM (inactive); in assay [13], > 100 µM (inactive); in assay [14] it was > 100 µM (inactive). Besides, the GI50 in assay [15], in assay [19], in assay [16], in [17] and in assay [18] was > 100 µM (inactive) in each case.

Turning to `C[C@@]12C=CC3C/C(=N\C(N)=S)C=C(CCCC4OCCO4)[C@]3(CC1)C2` (some centres undefined), the GI50 in assay [1] is 15.5 µM (inactive); in assay [2] it was 28.6 µM (inactive); in assay [3], 21 µM (inactive); in [4] it was 17.7 µM; in assay [5], 34.4 µM (inactive); in assay [6], 23.6 µM (inactive). Also, the GI50 in [7] is 18.4 µM (inactive); in assay [8] it was 15.8 µM (inactive); in [9] it was 15.2 µM (inactive); in assay [10], 17.4 µM (inactive); in assay [11], 16 µM (inactive); in [12], 23.1 µM (inactive). Besides, the GI50 is 12.4 µM (inactive) in [13]; 16.5 µM (inactive) in assay [14]; 15.1 µM (inactive) in [15]; 20.8 µM (inactive) in assay [19]; 20.5 µM (inactive) in assay [16]; 16.2 µM (inactive) in assay [17]. Also, in assay [18], the GI50 was 17.6 µM (inactive).

For `Cc1n[nH]c(=O)n1/N=C/c1c[nH]c2ccccc12`, the GI50 in assay [1] is > 100 µM (inactive); in assay [2], > 100 µM (inactive); in assay [3], > 100 µM (inactive); in assay [4] it was more than 100 µM; in assay [5], > 100 µM (inactive); in [6] it was > 100 µM (inactive). Moreover, the GI50 is > 100 µM (inactive) in [7]; > 100 µM (inactive) in [8]; > 100 µM (inactive) in [9]; > 100 µM (inactive) in assay [10]; 20.9 µM (inactive) in [11]; > 100 µM (inactive) in assay [12]. Further, the GI50 in assay [14], in assay [15], in assay [19], in assay [16], in [17] and in assay [18] was > 100 µM (inactive) throughout.

For the compound `COC(=O)[C@]1(C)CCC[C@@]2(C)C1CC[C@@]13C=C(C(C)C)[C@@H](CC1=O)CC23` (some centres undefined), the GI50 in assay [2] was 18.6 µM (inactive); in assay [3], 38.4 µM (inactive); in assay [4], 21.1 µM; in assay [20] it was 19.8 µM (inactive); in assay [6], 34.5 µM (inactive); in [8], 23 µM (inactive). In addition, the GI50 in assay [9] is 21.4 µM (inactive); in [10], 21.6 µM (inactive); in assay [11], 21.5 µM (inactive); in assay [12] it was 30.6 µM (inactive); in assay [13], 16.5 µM (inactive); in assay [14], 19.8 µM (inactive). The GI50 in [15] is 15.5 µM (inactive); in [19], 27.3 µM (inactive); in assay [16] it was 18.7 µM (inactive); in assay [17], 28.6 µM (inactive); in [18] it was 21.7 µM (inactive).

For the compound `CC(=O)OCc1ccc2oc(=O)c(C(=O)Oc3cccc(Cl)c3)cc2c1`, the GI50 in assay [2] is 38.2 µM (inactive); in [3] it was > 100 µM (inactive); in assay [4], 35.5 µM; in assay [5], 20.6 µM (inactive); in [6], 61.5 µM (inactive); in assay [7], > 100 µM (inactive). In addition, the GI50 was > 100 µM (inactive) in assay [8]; > 100 µM (inactive) in assay [9]; 19.1 µM (inactive) in [10]; 33.7 µM (inactive) in assay [11]; > 100 µM (inactive) in assay [12]; > 100 µM (inactive) in assay [13]. For the same compound, the GI50 is 54.5 µM (inactive) in [14]; 44.8 µM (inactive) in assay [15]; 56.4 µM (inactive) in assay [19]; > 100 µM (inactive) in assay [16]; 17.4 µM (inactive) in assay [17]; 22.1 µM (inactive) in assay [18].

For the compound `O=C1/C(=C/c2cccc([N+](=O)[O-])c2)Cc2ccccc21`, the GI50 in [2] is > 100 µM (inactive); in [3], > 100 µM (inactive); in [4], 72.8 µM; in assay [20], > 100 µM (inactive); in assay [5], 75.3 µM (inactive); in assay [6], 86.5 µM (inactive). Besides, the GI50 in assay [7], in assay [8], in [9], in [10], in assay [12] and in assay [14] was > 100 µM (inactive) throughout. Besides, the GI50 in assay [15] is 36.8 µM (inactive); in assay [19], 94.8 µM (inactive); in assay [16], 60.1 µM (inactive); in assay [17], > 100 µM (inactive); in assay [18], 94.8 µM (inactive).

As for `Nc1nc(N)c2nc(CNc3ccc(C(=O)NC(CCCCNC(=O)c4ccccc4C(=O)O)C(=O)O)cc3)cnc2n1` (centres undefined), the GI50 is 0.0738 µM (active) in assay [1]; 0.01 µM (active) in assay [2]; 0.01 µM (active) in [3]; 0.01 µM in assay [4]; 0.445 µM (active) in assay [5]; 0.01 µM (active) in assay [6]. Also, the GI50 in [7] was 3.61 µM (inactive); in assay [8] it was 0.01 µM (active); in assay [9], > 100 µM (inactive); in assay [10], 0.01 µM (active); in assay [11], 0.01 µM (active); in [12], < 0.0332 µM (active). In addition, the GI50 in assay [13] is < 0.0119 µM (active); in assay [14], 0.01 µM (active); in assay [15], 0.01 µM (active); in [19], 0.01 µM (active); in assay [16], 0.01 µM (active); in [17], 0.01 µM (active). Moreover, in [18], the GI50 is 0.00776 µM (active).

As to `Cc1ccc(/N=N/C(=N/c2ccccc2)c2ccc(N(CCC#N)CCC#N)cc2)cc1`, the GI50 in assay [1] is 45.4 µM (inactive); in [2], 46 µM (inactive); in [3] it was 36.6 µM (inactive); in assay [4] it was 44.8 µM; in [5], 22 µM (inactive); in assay [6], 24.3 µM (inactive). Further, the GI50 in [8] was > 100 µM (inactive); in [9], 20.1 µM (inactive); in [10] it was 17.9 µM (inactive); in [11], 22.3 µM (inactive); in assay [12] it was 27.2 µM (inactive); in assay [13] it was 22.9 µM (inactive). The GI50 in [14] is 31.9 µM (inactive); in assay [15], 27.9 µM (inactive); in assay [19], 45.6 µM (inactive); in assay [16], 15.8 µM (inactive); in assay [17], 21.8 µM (inactive); in assay [18], 60.3 µM (inactive).
